For the test, the system named is MV-4-11 cells. In words: Gene expression microarray analysis (Affymetrix PrimeView) and GSEA. Format: cell-based, human. Conditions: MV-4-11 cells, 48 hours. Set-up: RFU PODN (11730768_x_at) / Fold change /veh PODN (11730768_x_at) / RFU LINC00158 (11744669_a_at) / Fold change /veh LINC00158 (11744669_a_at) / RFU DUSP10 (11751237_a_at) / Fold change /veh DUSP10 (11751237_a_at) / RFU ID3 (11757404_x_at) / Fold change /veh ID3 (11757404_x_at) / RFU PLEKHG5 (11737974_s_at) / Fold change /veh PLEKHG5 (11737974_s_at) / RFU LRRC4B (11730491_at) / Fold change /veh LRRC4B (11730491_at) / RFU GIMAP4 (11747438_a_at) / Fold change /veh GIMAP4 (11747438_a_at) / RFU KRT8 (11758183_x_at) / Fold change /veh KRT8 (11758183_x_at) / RFU CNN1 (11734310_a_at) / Fold change /veh CNN1 (11734310_a_at) / RFU VPS37D (11726825_at) / Fold change /veh VPS37D (11726825_at) / RFU C10orf10 (11716522_x_at) / Fold change /veh C10orf10 (11716522_x_at) / RFU KIR2DL2 /// KIR2DL4 /// KIR2DL5A /// KIR2DL5B /// KIR2DS1 /// KIR2DS2 /// KIR2DS3 /// KIR2DS4 /// KIR3DL3 /// KIR3DL3 /// KIR3DS1 (11738374_at) / Fold change /veh KIR2DL2 /// KIR2DL4 /// KIR2DL5A /// KIR2DL5B /// KIR2DS1 /// KIR2DS2 /// KIR2DS3 /// KIR2DS4 /// KIR3DL3 /// KIR3DL3 /// KIR3DS1 (11738374_at) / RFU C1QL1 (11718748_at) / Fold change /veh C1QL1 (11718748_at) / RFU TMPRSS4 (11747572_a_at) / Fold change /veh TMPRSS4 (11747572_a_at) / RFU HAMP (11756126_x_at) / Fold change /veh HAMP (11756126_x_at) / RFU RNFT2 (11725882_a_at) / Fold change /veh RNFT2 (11725882_a_at) / RFU NR4A2 (11747474_a_at) / Fold change /veh NR4A2 (11747474_a_at) / RFU ABCC12 (11746883_a_at) / Fold change /veh ABCC12 (11746883_a_at) / RFU TMEM136 (11760407_x_at) / Fold change /veh TMEM136 (11760407_x_at) / RFU CLDN22 /// WWC2 (11732394_at) / Fold change /veh CLDN22 /// WWC2 (11732394_at) / RFU HLA-DPB1 (11760878_x_at) / Fold change /veh HLA-DPB1 (11760878_x_at) / RFU SPINT1 (11716480_a_at) / Fold change /veh SPINT1 (11716480_a_at) / RFU GAP43 (11754022_s_at) / Fold change /veh GAP43 (11754022_s_at) / RFU A4GNT (11735810_at) / Fold change /veh A4GNT (11735810_at) / RFU PRB3 (11715151_x_at) / Fold change /veh PRB3 (11715151_x_at) / RFU TUBB4B (11761932_at) / Fold change /veh TUBB4B (11761932_at) / RFU CAPN14 (11732068_a_at) / Fold change /veh CAPN14 (11732068_a_at) / RFU TMCC2 (11721928_a_at) / Fold change /veh TMCC2 (11721928_a_at) / RFU IRGQ (11745062_a_at) / Fold change /veh IRGQ (11745062_a_at) / RFU FAM174B (11720279_a_at) / Fold change /veh FAM174B (11720279_a_at) / RFU TMPRSS4 (11748680_a_at) / Fold change /veh TMPRSS4 (11748680_a_at) / RFU FAM212B (11763350_a_at) / Fold change /veh FAM212B (11763350_a_at) / RFU PLEKHG5 (11743358_a_at) / Fold change /veh PLEKHG5 (11743358_a_at) / RFU ZSCAN30 (11745921_a_at) / Fold change /veh ZSCAN30 (11745921_a_at) / RFU CMKLR1 (11741424_a_at) / Fold change /veh CMKLR1 (11741424_a_at) / RFU LOC101060620 /// MAPK8IP1 (11723275_at) / Fold change /veh LOC101060620 /// MAPK8IP1 (11723275_at) / RFU SPTSSB (11747773_x_at) / Fold change /veh SPTSSB (11747773_x_at) / RFU PRSS12 (11739890_at) / Fold change /veh PRSS12 (11739890_at) / RFU BIN1 (11741810_x_at) / Fold change /veh BIN1 (11741810_x_at) / RFU WNT11 (11732464_a_at) / Fold change /veh WNT11 (11732464_a_at) / RFU C10orf10 (11716521_a_at) / Fold change /veh C10orf10 (11716521_a_at) / RFU C5orf56 (11738089_at) / Fold change /veh C5orf56 (11738089_at) / RFU CYB561 (11721691_x_at) / Fold change /veh CYB561 (11721691_x_at) / RFU ANKRD19P (11752326_a_at) / Fold change /veh ANKRD19P (11752326_a_at) / RFU OR2T12 /// OR2T33 /// OR2T8 (11738714_s_at) / Fold change /veh OR2T12 /// OR2T33 /// OR2T8 (11738714_s_at) / RFU VCAN (11748164_a_at) / Fold change /veh VCAN (11748164_a_at) / RFU JSRP1 (11732532_at) / Fold change /veh JSRP1 (11732532_at) / RFU KRTAP10-11 (11738290_x_at) / Fold change /veh KRTAP10-11 (11738290_x_at) / RFU MYO3A (11730013_a_at) / Fold change /veh MYO3A (11730013_a_at) / RFU EBF3 (11725865_a_at) / Fold change /veh EBF3 (11725865_a_at) / RFU CAMK2N1 (11719241_x_at) / Fold change /veh CAMK2N1 (11719241_x_at) / RFU C5orf56 (11738088_a_at) / Fold change /veh C5orf56 (11738088_a_at) / RFU OLFML3 (11715873_a_at) / Fold change /veh OLFML3 (11715873_a_at) / RFU LOC100653217 /// NTM (11731650_a_at) / Fold change /veh LOC100653217 /// NTM (11731650_a_at) / RFU MAPK11 (11762145_a_at) / Fold change /veh MAPK11 (11762145_a_at) / RFU FIZ1 (11724087_x_at) / Fold change /veh FIZ1 (11724087_x_at) / RFU OASL (11726364_x_at) / Fold change /veh OASL (11726364_x_at) / RFU SOX15 (11748057_x_at) / Fold change /veh SOX15 (11748057_x_at) / RFU CD79A (11719716_a_at) / Fold change /veh CD79A (11719716_a_at) / RFU HIST1H1D (11736915_at) / Fold change /veh HIST1H1D (11736915_at) / RFU CASKIN2 (11723855_a_at) / Fold change /veh CASKIN2 (11723855_a_at) / RFU LOC730098 (11760151_x_at) / Fold change /veh LOC730098 (11760151_x_at) / RFU OR4N2 (11742367_at) / Fold change /veh OR4N2 (11742367_at) / RFU PRRT2 (11749266_a_at) / Fold change /veh PRRT2 (11749266_a_at) / RFU SNX32 (11753110_a_at) / Fold change /veh SNX32 (11753110_a_at) / RFU CDHR5 (11726645_a_at) / Fold change /veh CDHR5 (11726645_a_at) / RFU RCAN1 (11760418_a_at) / Fold change /veh RCAN1 (11760418_a_at) / RFU FAM167A (11723789_a_at) / Fold change /veh FAM167A (11723789_a_at) / RFU FAM26E (11764081_at) / Fold change /veh FAM26E (11764081_at) / RFU ISYNA1 (11749810_s_at) / Fold change /veh ISYNA1 (11749810_s_at) / RFU ACY1 (11761880_at) / Fold change /veh ACY1 (11761880_at) / RFU 11764098_at / Fold change /veh 11764098_at / RFU SAMD14 (11745864_x_at) / Fold change /veh SAMD14 (11745864_x_at) / RFU NPB (11741838_a_at) / Fold change /veh NPB (11741838_a_at) / RFU TMPRSS6 (11731388_a_at) / Fold change /veh TMPRSS6 (11731388_a_at) / RFU KRTAP10-2 (11738614_at) / Fold change /veh KRTAP10-2 (11738614_at) / RFU ARHGAP8 /// PRR5-ARHGAP8 (11727945_x_at) / Fold change /veh ARHGAP8 /// PRR5-ARHGAP8 (11727945_x_at) / RFU KRTAP5-7 /// NADSYN1 (11734609_at) / Fold change /veh KRTAP5-7 /// NADSYN1 (11734609_at) / RFU RASL12 (11751679_a_at) / Fold change /veh RASL12 (11751679_a_at) / RFU CDKN2B (11736163_a_at) / Fold change /veh CDKN2B (11736163_a_at) / RFU PRF1 (11729649_at) / Fold change /veh PRF1 (11729649_at) / RFU, ZNF638 /// ZNF638-IT1 / Fold change vs veh, ZNF638 /// ZNF638-IT1 / RFU, PANK3 / Fold change vs veh, PANK3 / RFU, SH3YL1 / Fold change vs veh, SH3YL1 / RFU, ZEB2 / Fold change vs veh, ZEB2 / RFU, NRIP1 / Fold change vs veh, NRIP1 / RFU, PTTG1IP / Fold change vs veh, PTTG1IP / RFU, CAPN2 / Fold change vs veh, CAPN2 / RFU, MED14 / Fold change vs veh, MED14 / RFU, SNORA58 / Fold change vs veh, SNORA58 / RFU, C1orf63 / Fold change vs veh, C1orf63 / RFU, LRRFIP1 / Fold change vs veh, LRRFIP1 / RFU, NDUFAF7 / Fold change vs veh, NDUFAF7 / RFU, SLC12A2 / Fold change vs veh, SLC12A2 / RFU, IBTK / Fold change vs veh, IBTK / RFU, ESF1 / Fold change vs veh, ESF1 / Fold change vs veh, TMEM50B / RFU, TAOK1 / Fold change vs veh, TAOK1 / RFU, ACBD3 / Fold change vs veh, ACBD3 / RFU, TMA16 / Fold change vs veh, TMA16 / RFU, RWDD3 / Fold change vs veh, RWDD3 / RFU, BCAT1 / Fold change vs veh, BCAT1 / RFU, EDEM3 / Fold change vs veh, EDEM3 / RFU, TMEM33 / Fold change vs veh, TMEM33 / RFU, WDR75 / Fold change vs veh, WDR75 / RFU, AHCTF1 / Fold change vs veh, AHCTF1 / RFU, TFRC / Fold change vs veh, TFRC / RFU, ZDHHC17 / Fold change vs veh, ZDHHC17 / RFU, NOM1 / Fold change vs veh, NOM1 / RFU, ARL8B / Fold change vs veh, ARL8B / RFU, ZBTB11 / Fold change vs veh, ZBTB11 / RFU, TAMM41 / Fold change vs veh, TAMM41 / RFU, KIAA1704 /// LOC100996395 / Fold change vs veh, KIAA1704 /// LOC100996395 / RFU, ING1 / Fold change vs veh, ING1 / RFU, TRMT61B / Fold change vs veh, TRMT61B / RFU, FUBP3 / Fold change vs veh, FUBP3 / RFU, TP53 / Fold change vs veh, TP53 / RFU, TNKS2 / Fold change vs veh, TNKS2 / RFU, ZFP14 / Fold change vs veh, ZFP14 / RFU, ACTR2 / Fold change vs veh, ACTR2 / RFU, PPP3R1 / Fold change vs veh, PPP3R1 / RFU, PIK3R1 / Fold change vs veh, PIK3R1 / RFU, HNRNPA1 / Fold change vs veh, HNRNPA1 / RFU, RNF170 / Fold change vs veh, RNF170 / RFU, ZNF28 / Fold change vs veh, ZNF28 / RFU, RNGTT / Fold change vs veh, RNGTT / RFU, OGT / Fold change vs veh, OGT / RFU, BRD1 / Fold change vs veh, BRD1 / RFU, MARS / Fold change vs veh, MARS / RFU, ZNF655 / Fold change vs veh, ZNF655 / RFU, FAHD1 / Fold change vs veh, FAHD1 / RFU, BDP1 / Fold change vs veh, BDP1 / RFU, LRRCC1 / Fold change vs veh, LRRCC1 / RFU, ARID1A / Fold change vs veh, ARID1A / RFU, ZNF146 / Fold change vs veh, ZNF146 / RFU, ZNF330 / Fold change vs veh, ZNF330 / RFU, GPN3 / Fold change vs veh, GPN3 / RFU, C9orf123 / Fold change vs veh, C9orf123 / RFU, N4BP2L2 / Fold change vs veh, N4BP2L2 / RFU, ARFIP1 / Fold change vs veh, ARFIP1 / RFU, FAM179B / Fold change vs veh, FAM179B / RFU, BCL10 / Fold change vs veh, BCL10 / RFU, UHRF1BP1L / Fold change vs veh, UHRF1BP1L / RFU, BET1 / Fold change vs veh, BET1 / RFU, CNOT2 / Fold change vs veh, CNOT2 / RFU, ZNF268 / Fold change vs veh, ZNF268 / Fold change vs veh, ZNF507 / RFU, DGCR2 / Fold change vs veh, DGCR2 / RFU, WDSUB1 / Fold change vs veh, WDSUB1 / Fold change vs veh, HSP90B1 /// MIR3652 / RFU, ADSS / Fold change vs veh, ADSS / RFU, GK / Fold change vs veh, GK / RFU, ZNF148 / Fold change vs veh, ZNF148 / RFU, TAF9 / Fold change vs veh, TAF9 / RFU, SLC1A5 / Fold change vs veh, SLC1A5 / RFU, SLMO2 / Fold change vs veh, SLMO2 / RFU, ABCC4 / Fold change vs veh, ABCC4 / RFU, LOC101060439 /// RAP1B / Fold change vs veh, LOC101060439 /// RAP1B / RFU, RFX7 / Fold change vs veh, RFX7 / RFU, GTPBP10 / Fold change vs veh, GTPBP10 / RFU, CNEP1R1 / Fold change vs veh, CNEP1R1 / RFU, BIVM-ERCC5 /// ERCC5 / Fold change vs veh, BIVM-ERCC5 /// ERCC5 / RFU, ILF3 / Fold change vs veh, ILF3 / RFU 11762660_at / Fold change /veh 11762660_at / RFU VCAN (11757783_s_at) / Fold change /veh VCAN (11757783_s_at) / RFU DDX43 (11728927_at) / Fold change /veh DDX43 (11728927_at) / RFU KRT8 (11758188_x_at) / Fold change /veh KRT8 (11758188_x_at) / RFU NKD1 (11759106_at) / Fold change /veh NKD1 (11759106_at) / RFU SRD5A1 (11742802_a_at) / Fold change /veh SRD5A1 (11742802_a_at) / RFU TPSAB1 /// TPSB2 (11721975_s_at) / Fold change /veh TPSAB1 /// TPSB2 (11721975_s_at) / RFU GSTM3 (11746129_a_at) / Fold change /veh GSTM3 (11746129_a_at) / RFU IL23R (11737362_x_at) / Fold change /veh IL23R (11737362_x_at) / RFU TMEM51 (11727254_a_at) / Fold change /veh TMEM51 (11727254_a_at) / RFU PIWIL2 (11732686_x_at) / Fold change /veh PIWIL2 (11732686_x_at) / RFU ORM1 (11744905_x_at) / Fold change /veh ORM1 (11744905_x_at) / RFU CCDC152 (11743942_at) / Fold change /veh CCDC152 (11743942_at) / RFU ECM1 (11717891_a_at) / Fold change /veh ECM1 (11717891_a_at) / RFU IL23R (11748794_a_at) / Fold change /veh IL23R (11748794_a_at) / RFU TNFAIP8L3 (11732012_x_at) / Fold change /veh TNFAIP8L3 (11732012_x_at) / RFU MBOAT4 (11741988_at) / Fold change /veh MBOAT4 (11741988_at) / RFU 11764193_at / Fold change /veh 11764193_at / RFU TMEM53 (11763286_at) / Fold change /veh TMEM53 (11763286_at) / RFU MAGEB2 (11727129_at) / Fold change /veh MAGEB2 (11727129_at) / RFU TMEM200A (11744735_a_at) / Fold change /veh TMEM200A (11744735_a_at) / RFU CCDC152 (11751479_a_at) / Fold change /veh CCDC152 (11751479_a_at) / RFU FAM211A (11726209_a_at) / Fold change /veh FAM211A (11726209_a_at) / RFU RGS16 (11746705_a_at) / Fold change /veh RGS16 (11746705_a_at) / RFU VCAN (11755009_s_at) / Fold change /veh VCAN (11755009_s_at) / RFU RHOB (11743442_s_at) / Fold change /veh RHOB (11743442_s_at) / RFU RGS16 (11720943_a_at) / Fold change /veh RGS16 (11720943_a_at) / RFU RGS16 (11720944_at) / Fold change /veh RGS16 (11720944_at) / RFU, VPS4B / Fold change vs veh, VPS4B / RFU, CREB1 / Fold change vs veh, CREB1 / RFU, DNAJC13 / Fold change vs veh, DNAJC13 / RFU, GNAQ / Fold change vs veh, GNAQ / RFU, CDK5R1 / Fold change vs veh, CDK5R1 / RFU, ZRANB3 / Fold change vs veh, ZRANB3 / RFU, CUL4A / Fold change vs veh, CUL4A / RFU, CCNY / Fold change vs veh, CCNY / RFU, UFL1 / Fold change vs veh, UFL1 / RFU, COG3 / Fold change vs veh, COG3 / RFU, DIAPH2 / Fold change vs veh, DIAPH2 / RFU, SKA2 / Fold change vs veh, SKA2 / RFU, AFF3 / Fold change vs veh, AFF3 / RFU, LMF1 / Fold change vs veh, LMF1 / RFU, IPO11 / Fold change vs veh, IPO11 / RFU, DFFB / Fold change vs veh, DFFB / RFU, FOXP1 / Fold change vs veh, FOXP1 / RFU, CARD8 / Fold change vs veh, CARD8 / RFU, STRN3 / Fold change vs veh, STRN3 / RFU, ADK / Fold change vs veh, ADK / RFU, RASSF2 / Fold change vs veh, RASSF2 / RFU, WIPF1 / Fold change vs veh, WIPF1 / RFU, LARP1B / Fold change vs veh, LARP1B / RFU, RASA1 / Fold change vs veh, RASA1 / RFU, RB1 / Fold change vs veh, RB1 / RFU, PPFIA1 / Fold change vs veh, PPFIA1 / RFU, MAT2A / Fold change vs veh, MAT2A / RFU, CCT5 / Fold change vs veh, CCT5 / RFU, WDR92 / Fold change vs veh, WDR92 / RFU, CUX1 / Fold change vs veh, CUX1 / RFU, TTC7A / Fold change vs veh, TTC7A / RFU, TMEM135 / Fold change vs veh, TMEM135 / RFU, DEPTOR / Fold change vs veh, DEPTOR / RFU, CPM / Fold change vs veh, CPM / RFU, DNAJB6 / Fold change vs veh, DNAJB6 / RFU, CACNA2D3 / Fold change vs veh, CACNA2D3 / RFU, DTX4 / Fold change vs veh, DTX4 / RFU, TFCP2 / Fold change vs veh, TFCP2 / RFU, GMCL1 /// GMCL1P1 / Fold change vs veh, GMCL1 /// GMCL1P1 / RFU, AEBP2 / Fold change vs veh, AEBP2 / RFU, SNHG1 /// SNORD22 /// SNORD25 /// SNORD26 /// SNORD27 /// SNORD28 /// SNORD29 /// SNORD31 / Fold change vs veh, SNHG1 /// SNORD22 /// SNORD25 /// SNORD26 /// SNORD27 /// SNORD28 /// SNORD29 /// SNORD31 / Fold change (Aza/veh), C12orf56 (ProbeSet 11735607_a_at) / Fold change (ACY-1035/veh), C12orf56 (ProbeSet 11735607_a_at) / Fold change (Aza/veh), FGFR1OP (ProbeSet 11751329_s_at) / Fold change (ACY-1035/veh), FGFR1OP (ProbeSet 11751329_s_at) / Fold change (Aza/veh), VPS36 (ProbeSet 11739960_a_at) / Fold change (ACY-1035/veh), VPS36 (ProbeSet 11739960_a_at) / RFU SYPL1 (11715823_x_at) / Fold change /veh SYPL1 (11715823_x_at) / RFU IGFBP7 (11715501_s_at) / Fold change /veh IGFBP7 (11715501_s_at) / RFU REEP3 (11722064_at) / Fold change /veh REEP3 (11722064_at) / RFU IGLL1 (11728026_x_at) / Fold change /veh IGLL1 (11728026_x_at): dose or concentration left out as unconfirmed.

The results in this text go back to paper PMC5218480 (PLoS ONE, 2017).

Take `Nc1ncn([C@@H]2O[C@H](CO)[C@@H](O)[C@H]2O)c(=O)n1` [azacitidine]: the “Fold change /veh SRD5A1 (11742802_a_at)” value is 1.21.
